Test systems include RPMI-8226 leukemia; SF-539 CNS; UACC-257 melanoma; HS 578T breast; HOP-62 NSCLC; CAKI-1 renal; ACHN renal; UO-31 renal; CCRF-CEM leukemia; SW-620 colon.
Test in all cases: inhibition of tumour cell growth, NCI panel, 48 h

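Assay format: 96-well plates, 48-hour exposure. TGI is the concentration that stops growth completely.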

In the case of `CCOC(=O)NC(OC)(C(F)(F)F)C(F)(F)F`, the TGI in the test with RPMI-8226 leukemia, with SF-539 CNS, with UACC-257 melanoma, in the test on HS 578T breast, with HOP-62 NSCLC and in the test with CAKI-1 renal was greater than 100 µM throughout. Also, the TGI with ACHN renal, in the test with UO-31 renal, in the test with CCRF-CEM leukemia and in the test with SW-620 colon was greater than 100 µM each time.

Turning to `Cc1cc(S(=O)(=O)Nc2nnc3cnc4ccccc4n23)c(S)cc1Cl`, the TGI with RPMI-8226 leukemia, in the test on SF-539 CNS, with UACC-257 melanoma, in the test on HS 578T breast, with HOP-62 NSCLC and in the test with CAKI-1 renal was greater than 100 µM in each case. The TGI in the test on ACHN renal, with UO-31 renal, with CCRF-CEM leukemia and with SW-620 colon was greater than 100 µM throughout.

`CC(C)(C)c1cc(OCc2nn3c(Cc4ccccc4)nnc3s2)c(Cl)cc1OCc1nn2c(Cc3ccccc3)nnc2s1`: the TGI with RPMI-8226 leukemia is greater than 100 µM; with SF-539 CNS, greater than 100 µM; with UACC-257 melanoma, 93.1 µM; with HS 578T breast it was greater than 100 µM; in the test with HOP-62 NSCLC it was greater than 100 µM; in the test with CAKI-1 renal it was greater than 100 µM. Further, the TGI in the test on ACHN renal, with UO-31 renal, in the test on CCRF-CEM leukemia and in the test on SW-620 colon was greater than 100 µM in each case.

With `C[C@@H]1C(=O)C[C@H]2C(C)(C)CCC[C@]2(C)[C@@]1(O)CCc1ccoc1`, the TGI with RPMI-8226 leukemia, in the test with SF-539 CNS, with UACC-257 melanoma, with HS 578T breast, with HOP-62 NSCLC and with CAKI-1 renal was greater than 100 µM throughout. Further, the TGI in the test on ACHN renal, in the test on UO-31 renal, with CCRF-CEM leukemia and in the test with SW-620 colon was greater than 100 µM throughout.

In the case of `C=C1CC(Cn2ccc(=O)[nH]c2=O)(c2ccc(Cl)cc2)OC1=O` (stereo not given), the TGI in the test on RPMI-8226 leukemia was found to be 3.94 µM; in the test with SF-539 CNS, 30.4 µM; in the test on UACC-257 melanoma it was 12.4 µM; in the test with HS 578T breast, 38.7 µM; in the test with HOP-62 NSCLC it was 36.4 µM; with CAKI-1 renal, 6.77 µM. Besides, the TGI with ACHN renal worked out at 10.4 µM; in the test on UO-31 renal it was 33 µM; in the test on CCRF-CEM leukemia, 3.46 µM; with SW-620 colon it was 4.31 µM.

For `C=C(C)COC1CCCCO1` (stereo not given), the TGI with RPMI-8226 leukemia, in the test with SF-539 CNS, with UACC-257 melanoma, in the test with HS 578T breast, in the test on HOP-62 NSCLC and in the test with CAKI-1 renal was greater than 100 µM throughout. Further, the TGI with ACHN renal, with UO-31 renal, in the test with CCRF-CEM leukemia and in the test with SW-620 colon was greater than 100 µM in each case.

On to `CCOC(=O)Nc1ccc2c(c1)c(CCCCCCc1nc3ccccc3c3ccc(NC(=O)OCC)cc13)nc1ccccc12`, for which the TGI is greater than 100 µM in the test with RPMI-8226 leukemia; 25 µM in the test with SF-539 CNS; greater than 100 µM in the test with UACC-257 melanoma; greater than 100 µM with HS 578T breast; 64.2 µM in the test with HOP-62 NSCLC; greater than 100 µM in the test on CAKI-1 renal. The TGI in the test with ACHN renal, in the test with UO-31 renal, in the test on CCRF-CEM leukemia and with SW-620 colon was greater than 100 µM in each case.

As for `CC(=O)Oc1c(-c2ccccc2)sc2ccccc12`, the TGI in the test with RPMI-8226 leukemia came out at 24.8 µM; in the test on SF-539 CNS, 46.8 µM; in the test on UACC-257 melanoma, 37 µM; in the test with HS 578T breast, 40.6 µM; with HOP-62 NSCLC, 45.7 µM; with CAKI-1 renal it was 22.8 µM. Further, the TGI was 32 µM in the test on ACHN renal, 36.6 µM in the test with UO-31 renal, 37 µM with CCRF-CEM leukemia and greater than 100 µM with SW-620 colon.

As for `C=CCN(CCNS(=O)(=O)c1ccc(C)cc1)S(=O)(=O)c1ccc(C)cc1`, the TGI was 73.5 µM in the test on RPMI-8226 leukemia; greater than 100 µM with SF-539 CNS; greater than 100 µM in the test with UACC-257 melanoma; greater than 100 µM in the test on HS 578T breast; greater than 100 µM with HOP-62 NSCLC; greater than 100 µM in the test with CAKI-1 renal. The TGI in the test on ACHN renal, with UO-31 renal, in the test with CCRF-CEM leukemia and with SW-620 colon was greater than 100 µM in each case.

Turning to `COc1cc2c3c(n(C)c(=O)c2cc1OC)-c1cc2c(cc1/C3=C\CCCI)OCO2`, the TGI in the test with RPMI-8226 leukemia was greater than 74.6 µM; in the test with SF-539 CNS, greater than 95.3 µM; with UACC-257 melanoma, greater than 100 µM; with HS 578T breast, greater than 75.5 µM; in the test with HOP-62 NSCLC it was greater than 100 µM; in the test with CAKI-1 renal, greater than 100 µM. Moreover, the TGI in the test with ACHN renal was greater than 85.3 µM; in the test with UO-31 renal, greater than 100 µM; in the test with CCRF-CEM leukemia, greater than 100 µM; in the test with SW-620 colon, greater than 100 µM.

Take `O=c1ccn(C2OC(CO)C(O)C2F)c(=O)n1Cc1ccccc1` (stereo not given): the TGI in the test with RPMI-8226 leukemia, in the test on SF-539 CNS, in the test with UACC-257 melanoma, in the test on HS 578T breast, in the test on HOP-62 NSCLC and in the test with CAKI-1 renal was greater than 100 µM throughout. The TGI in the test with ACHN renal, with UO-31 renal, in the test with CCRF-CEM leukemia and in the test on SW-620 colon was greater than 100 µM each time.

For the compound `COc1ccc(N=NC(=O)NC(CC(C)C)C(N)=O)cc1` (stereo not given), the TGI in the test on RPMI-8226 leukemia is greater than 100 µM; in the test on SF-539 CNS, greater than 31.6 µM; with UACC-257 melanoma, greater than 31.6 µM; with HS 578T breast, greater than 100 µM; in the test with HOP-62 NSCLC it was greater than 100 µM; with CAKI-1 renal, greater than 31.6 µM. Moreover, the TGI was greater than 31.6 µM with ACHN renal, greater than 65.4 µM with UO-31 renal, greater than 100 µM with CCRF-CEM leukemia and greater than 100 µM in the test on SW-620 colon.

Consider `C/C=C1\CN(C(=O)OC(C)(C)C)C1C(=O)OC(C)(C)C` (stereo not given), for which the TGI with RPMI-8226 leukemia, in the test with SF-539 CNS, in the test with UACC-257 melanoma, with HS 578T breast, in the test on HOP-62 NSCLC and in the test on CAKI-1 renal was greater than 100 µM each time. The TGI with ACHN renal, with UO-31 renal, with CCRF-CEM leukemia and in the test on SW-620 colon was greater than 100 µM in each case.

In the case of `NC1=Nc2cc(Cl)ccc2Sc2nc3ccccc3n21`, the TGI in the test with RPMI-8226 leukemia, in the test on SF-539 CNS, with UACC-257 melanoma, with HS 578T breast, in the test on HOP-62 NSCLC and with CAKI-1 renal was greater than 100 µM throughout. Moreover, the TGI with ACHN renal was greater than 100 µM; in the test with UO-31 renal it was greater than 100 µM; in the test with CCRF-CEM leukemia, 19.4 µM; in the test on SW-620 colon, greater than 100 µM.

For `CC(C)(C)OC(=O)CN1CCNCCN(CC(=O)OC(C)(C)C)CCNCC1`, the TGI with RPMI-8226 leukemia, in the test on SF-539 CNS, with UACC-257 melanoma, in the test on HS 578T breast, in the test with HOP-62 NSCLC and in the test on CAKI-1 renal was greater than 100 µM throughout. In addition, the TGI with ACHN renal, with UO-31 renal, in the test with CCRF-CEM leukemia and with SW-620 colon was greater than 100 µM in each case.

Regarding `Cc1nc(C)c(N2CCNCC2)c(=O)[nH]1`, the TGI with RPMI-8226 leukemia, with SF-539 CNS, in the test with UACC-257 melanoma, with HS 578T breast, in the test with HOP-62 NSCLC and with CAKI-1 renal was greater than 100 µM in each case. Also, the TGI in the test on ACHN renal, in the test with UO-31 renal, in the test with CCRF-CEM leukemia and in the test on SW-620 colon was greater than 100 µM each time.

On to `Cc1ccc(C(=O)Nc2ccc(CP(=O)(O)O)cc2CP(=O)(O)O)cc1NC(=O)Nc1cc(C(=O)Nc2ccc(CP(=O)(O)O)cc2CP(=O)(O)O)ccc1C`, for which the TGI with RPMI-8226 leukemia, in the test on SF-539 CNS, in the test with UACC-257 melanoma, in the test on HS 578T breast, in the test with HOP-62 NSCLC and with CAKI-1 renal was greater than 100 µM in each case. Further, the TGI with ACHN renal, in the test with UO-31 renal, in the test on CCRF-CEM leukemia and in the test on SW-620 colon was greater than 100 µM each time.

As to `Cc1ccc(-c2nc(N/N=C/c3ccc(O)cc3)c3ccccc3n2)cc1`, the TGI was greater than 100 µM in the test on RPMI-8226 leukemia; greater than 100 µM with SF-539 CNS; 15.4 µM in the test with UACC-257 melanoma; greater than 100 µM in the test on HS 578T breast; greater than 100 µM in the test on HOP-62 NSCLC; 31.8 µM in the test on CAKI-1 renal. Also, the TGI was 35.7 µM in the test on ACHN renal, 24.7 µM in the test with UO-31 renal, greater than 100 µM in the test on CCRF-CEM leukemia and greater than 100 µM in the test on SW-620 colon.

Consider `Cc1n[nH]c(=O)n1/N=C\c1ccccc1`, for which the TGI in the test on RPMI-8226 leukemia, with SF-539 CNS, with UACC-257 melanoma, in the test on HS 578T breast, with HOP-62 NSCLC and in the test with CAKI-1 renal was greater than 100 µM each time. Also, the TGI in the test on ACHN renal, in the test with UO-31 renal, with CCRF-CEM leukemia and in the test on SW-620 colon was greater than 100 µM in each case.

For the compound `O=C(N=c1ccc2nc(=O)[nH]n(O)c-2c1)C(F)(F)F`, the TGI in the test on RPMI-8226 leukemia, in the test with SF-539 CNS, with UACC-257 melanoma, in the test with HS 578T breast, in the test on HOP-62 NSCLC and with CAKI-1 renal was greater than 100 µM each time. The TGI in the test on ACHN renal, with UO-31 renal, in the test with CCRF-CEM leukemia and in the test with SW-620 colon was greater than 100 µM in each case.

Values taken from PubChem BioAssay (NCI).
